Results: US12570612B2, “Substituted nitrogen heterocyclic compound and anesthetic effect thereof” (priority 2019, dated 2026)
“Also recorded” adds a separate entry of the source. Like-named read-outs stand apart in the source and are kept apart here. Marks after values point to notes of the source that are not given here.

What was measured:
Sprague-Dawley rats [1] = assay: animal or person; assay type: in vivo; conditions: rats; for ED50: LORR, up and down method, tail vein
Description: (§1) Evaluating indicator: The end point of anesthesia: the disappearance of forepaw righting reflex (lorr) was used as the end point of anesthesia; General anesthesia effect: the disappearance of forepaw righting reflex in rats lasting for 30 seconds is taken as the index of general anesthesia effect; Anesthesia recovery index: the recovery of rat forepaw righting reflex was used as the index of anesthesia recovery.

Sprague-Dawley rats [2] = assay: Pharmacological effect and adverse reactions under the equivalent dose (2ED50), Group D compounds; assay type: in vivo; conditions: for Righting reflex duration / Sedation duration / Onset time: 2ED50, tail vein, rats, n=8
Description: (§2) Evaluation index: onset time: from the completion of drug injection to the disappearance of forepaw righting reflex in rats; Duration of anesthesia: the time from the disappearance of rat forepaw righting reflex to the recovery of rat forepaw righting reflex; Recovery time of anesthesia: the time from the […] to complete recovery;

adrenal cortex function = assay: Adrenocortical function in rats: corticosterone after dexamethasone and ACTH, Group D compounds; conditions: for Baseline(S1) corticosterone concentration: before drug
Procedure: Instruments and Equipment: multi-function ion meter (METTLER TOLEDO, models: SevenMulti), pipetting gun (Eppendorf, specifications: 1000 ul, 200 ul, 100 ul, 10 ul), electronic balance (model: ME215S, manufacturers: Sartorius, Germany), the timer. Experimental Method: Adult male Sprague-Dawley rats (250-300 g) were selected for the experiment (n=8), all the experiment were started in the morning. Place indwelling needles in tail vein of rats and inject dexamethasone (0.5 mg/kg). The first time of blood collection (S1) is in two hours later, and give dexamethasone (0.2 mg/kg). […] All the drugs were administered in a volume of 0.6 ml and at a rate of 0.1 ml/s. 15 min later, exogenous ACTH (25 ug/kg) was injected. Another blood sample was collected after 30 min (S2). The blood samples were left standing at room temperature for 30-60 min, followed by centrifugation at 3500 rpm for 10 min. The supernatant was taken and centrifuged again at 15000 rpm for 5 min before being frozen and stored in a −20° C. refrigerator.
Evaluation indexes: The concentration of the corticosterone in the supernatant of rats before and after given drugs.

SD rats [3] = conditions: for After the infusion is stopped: Righting reflex recovery time / Recovery time after stopping infusion: after 1 hour continuous infusion at 2 times the MIR; for After the infusion is stopped: Righting reflex recovery time / Recovery time after stopping infusion / Sedation onset time: SD rats; for Sedation onset time: continuous tail vein infusion at 2 times the MIR
Procedure: (§3) Experimental Methods: Adult male SD rats with body weight ranging from 250 g to 350 g were selected for continuous infusion test.
(§4) Evaluation indexes: the time from the beginning of continuous infusion to the […] of sedation in rats; the time from the cessation of infusion to the restoration of the forepaw turning reflex after 1 hour of continuous infusion; the time from the cessation of infusion to the complete restoration of rats after 1 hour of continuous infusion.

Sprague-Dawley rats [4] = assay type: in vivo; conditions: tail vein
Sprague-Dawley rats [5] = assay: animal or person
Procedure: (§5) Adult male Sprague-Dawley rats (250-300 g) were selected for the experiment. […] The anesthesia effects of the compounds were assessed in rats using a LORR assay and a period >30 s was considered as an indicator of general anesthesia.

Sprague-Dawley rats [6] = assay: Pharmacological characteristics at equivalent doses (2ED50), Group A compounds; assay type: in vivo; conditions: 2ED50, tail vein
H295R cell line [7] = assay: Adrenocortical function in vitro test: secretion of cortisol and corticosterone, Group A compounds; assay type: cell-based; conditions: H295 cells; for EC50: 0.1-10000 nM, HPLC-MS/MS
Sprague-Dawley rats [8] = tested on: Sprague-Dawley rats
Procedure: Adult male Sprague-Dawley rats with body weight ranging from 250 to 300 gm were selected for continuous infusion test. […] Time to recovery of righting reflex from stopping infusion, and time to fully awake from stopping infusion were recorded.

Sprague-Dawley rats [9] = assay: animal or person; remark: listed apart in the source
Procedure: as §5

H295R cell line [10] = assay: Adrenocortical function in vitro test: secretion of cortisol and corticosterone, Group B compounds; assay type: cell-based; conditions: H295R cells; for EC50: 0.1-10000 nM, HPLC-MS/MS
[11] = tested on: circulatory function of rats; conditions: rat, in vivo
Procedure: First, animal models were established. […] At least one week after surgery, data were recorded.
Finally, the pharmacological effects, adverse reactions, and behavioral manifestations of the rats were observed and recorded
After data acquisition, the test was stopped.

Sprague-Dawley rats [12] = assay: Continuous infusion at 2 times the MIR for 1 hour, Group B compounds; assay type: in vivo
Sprague-Dawley rats [13] = assay: animal or person; assay type: in vivo; conditions: rats
Description: as §1, with “LORR” for “the disappearance of forepaw righting reflex (lorr)”

Sprague-Dawley rats [14] = assay: Pharmacological effect and adverse reactions under the equivalent dose (2ED50), Group C compounds; assay type: in vivo
Description: as §2

SD rats [15] = tested on: SD rats
Procedure: as §3, §4

Sprague-Dawley rats [16] = assay type: in vivo; conditions: tail vein; remark: listed apart in the source
[17] = equivalent dose (2 × ED50), number of rats of n = 8
[18] = continuous infusion 2 x MIR 1 hour, rats affected/rats
[19] = LORR in rats, tail vein, brackets = 95% confidence limit
[20] = read-out: EC50 (Corticosterone)
[21] = equivalent dose (2ED50), number of rats of n = 8
[22] = after 1 hour continuous infusion at 2 times the MIR, SD rats

In the case of `CCOC(OCC)(OCC)C(=O)c1cncn1[C@H](C)c1ccccc1` [Compound D76], the ED50 (Sprague-Dawley rats [1]; class symbols) is reported as “++ (++ indicates that the measured ED50 is in the range of 0.50-1.00 mg/kg (excluding 0.50 mg/kg, including 1.00 mg/kg))”, the Approximate therapeutic index (Sprague-Dawley rats [1]) is reported as greater than 31.8 and the Righting reflex duration (Sprague-Dawley rats [2]) is reported as 1.67 ± 1.32 min. The Sedation duration (Sprague-Dawley rats [2]) was 6.44 ± 1.82 min, the Onset time (Sprague-Dawley rats [2]; unit min) was less than 1 min and the “Adverse reaction: Convulsions” value (Sprague-Dawley rats [2]; [17]) was 0. The “Adverse reaction: Cough, broken-winded” value (Sprague-Dawley rats [2]; [17]) was 0, the “Adverse reaction: Euphoria” value (Sprague-Dawley rats [2]; [17]) was 0 and the “Adverse reaction: Four limbs rigidity” value (Sprague-Dawley rats [2]; [17]) was 2. The “Adverse reaction: Red urine” value (Sprague-Dawley rats [2]; [17]) was 8, the “Adverse reaction: Slower breathing, Tetany convulsion” value (“Adverse reaction: Slower breathing” below) (Sprague-Dawley rats [2]; [17]) was 0 and the “Adverse reaction: Systemic stiffness, Convulsions, Opisthotonus” value (“Adverse reaction: Systemic stiffness” below) (Sprague-Dawley rats [2]; [17]) was 8. The “Adverse reaction: Tongue stretching” value (Sprague-Dawley rats [2]; [17]) was 0, the “Adverse reaction: Tremor” value (Sprague-Dawley rats [2]; [17]) was 0 and the “Baseline(S1) corticosterone concentration” value (adrenal cortex function; Table 17 printed a second time) was 153.23 ± 30.91. For the same compound, the “Give ACTH 30min later(S2) corticosterone concentration” value (adrenal cortex function; drug at 2ED50, 30 min after ACTH 25 ug/kg) was 277.88 ± 34.56, the “Give ACTH 30min later(S2) corticosterone concentration” value (adrenal cortex function; drug at 2ED50, 30 min after ACTH, Table 17 printed a second time) was 277.88 ± 34.56 and the “Baseline(S1) corticosterone concentration” value (adrenal cortex function; two hours after dexamethasone 0.5 mg/kg) was 153.23 ± 30.91. For the same compound, the “After the infusion is stopped: Righting reflex recovery time” value (from here on “After the infusion is stopped”) (SD rats [3]) was 15 to 25 min, the “Recovery time after stopping infusion” value (SD rats [3]) was 25 to 40 min and the “Types and incidence of adverse reactions: Hindlimb rigidity” value (“Types and incidence … Hindlimb rigidity” below) (SD rats [3]; [18]) was “rigidity(2/6)”. For the same compound, the “Types and incidence of adverse reactions: Red urine” value (shortened to “Types and incidence … Red urine”) (SD rats [3]; [18]) was “Red urine(6/6), Hindlimb”, the Sedation onset time (SD rats [3]) was less than 5 min and the Minimal lethal dose (Sprague-Dawley rats [4]) was greater than 11.5 mg/kg.

In the case of `COC(=O)C1(OC(=O)c2cncn2[C@H](C)c2ccccc2)CC1` [CPMM, cyclopropyl methoxycarbonyl metamidate, reference compound], the ED50 (Sprague-Dawley rats [5]; [19]) is reported as 0.78(0.74-0.82)* mg/kg, the Approximate therapeutic index (Sprague-Dawley rats [5]; rats) is reported as greater than 10 and the Minimal lethal dose (Sprague-Dawley rats [5]; rats) is reported as greater than 7.8 mg/kg. For the same compound, the Onset time (Sprague-Dawley rats [6]) was 0.26 ± 0.08 min, the Righting reflex duration (Sprague-Dawley rats [6]) was 1.62 ± 0.63 min and the “Corticosterone as an indicator to determine the presence of inhibition” value (H295R cell line [7]) was 1 (Mild inhibition (using CPMM as a control)). The “Cortisol as an indicator to determine the presence of inhibition” value (H295R cell line [7]) was 1 (Mild inhibition (using CPMM as a control)), the EC50 (H295R cell line [7]; [20]) was greater than 0.1 µM and the EC50 (H295R cell line [7]; read-out: EC50 (Cortisol)) was greater than 0.01 µM. The “Recovery time after stopping infusion” value (Sprague-Dawley rats [8]; LORR maintained for 1 hour, 2 times the MIR) was 7 to 8 min, the Onset time (Sprague-Dawley rats [8]; continuous infusion, 2 times the MIR) was 3 to 4 min and the “Types and incidence of adverse reactions” value (Sprague-Dawley rats [8]; continuous infusion, (animals affected/animals)) was “Convulsions(3/6),; also recorded: Tremor(5/6),; also recorded: Myoclonus(5/6),”. For the same compound, the ED50 (Sprague-Dawley rats [9]; [19]) was 0.78(0.74-0.82)* mg/kg, the Approximate therapeutic index (Sprague-Dawley rats [9]; rats) was greater than 10 and the Minimal lethal dose (Sprague-Dawley rats [9]; rats) was greater than 7.8 mg/kg. The “Corticosterone as an indicator to determine the presence of inhibition” value (H295R cell line [10]) was 1 (Mild inhibition (using CPMM as a control)), the “Cortisol as an indicator to determine the presence of inhibition” value (H295R cell line [10]) was 1 (Mild inhibition (using CPMM as a control)) and the EC50 (H295R cell line [10]; [20]) was greater than 0.1 µM. The EC50 (H295R cell line [10]; read-out: EC50 (Cortisol)) was greater than 0.01 µM, the “inhibitory effect on the circulatory function (MAP, HR)” value [11] was “almost no inhibitory effect on the circulatory function” and the “Recovery time after stopping infusion” value (Sprague-Dawley rats [12]; after 1 hour continuous infusion at 2 times the MIR, rats) was 7 to 8 min. The “Types and incidence of adverse reactions: Convulsions” value (Sprague-Dawley rats [12]; [18]) was “Convulsions (3/6), Tremor”, the “Types and incidence of adverse reactions: Myoclonus” value (Sprague-Dawley rats [12]; [18]) was “(5/6), Myoclonus (5/6)” and the “Types and incidence of adverse reactions: Tremor” value (“Types and incidence … Tremor” for short) (Sprague-Dawley rats [12]; [18]) was “(5/6), Myoclonus (5/6)”. The Onset time (Sprague-Dawley rats [12]; continuous tail vein infusion at 2 times the MIR, emulsion, rats) was 3 to 4 min, the ED50 (Sprague-Dawley rats [13]; LORR, up and down method, tail vein, brackets = 95% confidence limit) was 0.49(0.45-0.53)* mg/kg and the Approximate therapeutic index (Sprague-Dawley rats [13]) was 42.0. The Righting reflex duration (Sprague-Dawley rats [14]; 2ED50, tail vein, rats, n=8) was 2.71 ± 0.97 min, the Sedation duration (Sprague-Dawley rats [14]; 2ED50, tail vein, rats, n=8) was 8.48 ± 2.58 min and the Onset time (Sprague-Dawley rats [14]; 2ED50, tail vein, rats, n=8, unit s) was less than 30 s. For the same compound, the “Adverse reaction: Convulsions” value (Sprague-Dawley rats [14]; [21]) was 0, the “Adverse reaction: Cough, broken-winded” value (Sprague-Dawley rats [14]; [21]) was 0 and the “Adverse reaction: Euphoria” value (Sprague-Dawley rats [14]; [21]) was 0. For the same compound, the “Adverse reaction: Red urine” value (Sprague-Dawley rats [14]; [21]) was 8, the “Adverse reaction: Slower breathing” value (Sprague-Dawley rats [14]; [21]) was 3 and the “Adverse reaction: Systemic stiffness” value (Sprague-Dawley rats [14]; [21]) was 0. For the same compound, the “Adverse reaction: Tongue stretching” value (Sprague-Dawley rats [14]; [21]) was 4, the “Adverse reaction: Tremor” value (Sprague-Dawley rats [14]; [21]) was 5 and the “Adverse reaction: the four limbs rigidity” value (Sprague-Dawley rats [14]; [21]) was 4. For the same compound, the “After the infusion is stopped” value (SD rats [15]; [22]) was 8 to 10 min, the “Recovery time after stopping infusion” value (SD rats [15]; [22]) was 10 to 15 min and the “Types and incidence … Hindlimb rigidity” value (SD rats [15]; [18]) was “Hindlimb rigidity(4/6)”. The “Types and incidence … Red urine” value (SD rats [15]; [18]) was 6/6, the “Types and incidence … Tremor” value (SD rats [15]; [18]) was 4/6 and the Sedation onset time (SD rats [15]; continuous tail vein infusion at 2 times the MIR, SD rats) was less than 5 min. For the same compound, the ED50 (Sprague-Dawley rats [1]; brackets = 95% confidence limit) was 0.49(0.45-0.53)* mg/kg, the Approximate therapeutic index (Sprague-Dawley rats [1]) was 42.0 and the Righting reflex duration (Sprague-Dawley rats [2]) was 2.71 ± 0.97 min. The Sedation duration (Sprague-Dawley rats [2]) was 8.48 ± 2.58 min, the Onset time (Sprague-Dawley rats [2]; unit s) was less than 0.5 min and the “Adverse reaction: Convulsions” value (Sprague-Dawley rats [2]; [17]) was 0. The “Adverse reaction: Cough, broken-winded” value (Sprague-Dawley rats [2]; [17]) was 0, the “Adverse reaction: Euphoria” value (Sprague-Dawley rats [2]; [17]) was 0 and the “Adverse reaction: Four limbs rigidity” value (Sprague-Dawley rats [2]; [17]) was 2. The “Adverse reaction: Slower breathing” value (Sprague-Dawley rats [2]; [17]) was 0, the “Adverse reaction: Systemic stiffness” value (Sprague-Dawley rats [2]; [17]) was 0 and the “Adverse reaction: Tongue stretching” value (Sprague-Dawley rats [2]; [17]) was 4. For the same compound, the “Adverse reaction: Tremor” value (Sprague-Dawley rats [2]; [17]) was 2, the “After the infusion is stopped” value (SD rats [3]) was 8 to 10 min and the “Recovery time after stopping infusion” value (SD rats [3]) was 10 to 15 min. For the same compound, the “Types and incidence … Hindlimb rigidity” value (SD rats [3]; [18]) was “Hindlimb rigidity(4/6)”, the “Types and incidence … Red urine” value (SD rats [3]; [18]) was 6/6 and the “Types and incidence … Tremor” value (SD rats [3]; [18]) was 4/6. The Sedation onset time (SD rats [3]) was less than 5 min, the Minimal lethal dose (Sprague-Dawley rats [16]) was 20.6 mg/kg and the Minimal lethal dose (Sprague-Dawley rats [4]) was 20.6 mg/kg.
